Patent US11566002B2, “Substituted tetrahydrocyclopenta[C]pyrroles, substituted dihydropyrrolizines, analogues thereof, and methods using same” (priority 2018, dated 2023)
Like-named read-outs stand apart in the source and are kept apart here.

Test system: HBV rcDNA
Assay: HepDE19 assay with bDNA quantitation of HBV rcDNA
Assay type: cell-based, hepatitis B virus
Summary of the method: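 Cytotoxicity (CC50) measured by CellTiter-Glo ATP content in parallel plates, 5,000 cells/well, 4 days. Antiviral EC50 and EC90 derived from HBV rcDNA bDNA levels after 7-day compound exposure (top 25 μM, ½-log 8-point, 0.5% DMSO) of Tet-withdrawn HepDE19 cells at 50,000/well, as % inhibition versus untreated.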

[1] = HepDE19 cells, Tet-free medium, 7 day-incubation, rcDNA measured by Quantigene 2.0 bDNA assay, top concentration 25 μM; read-out: DE-19 bDNA EC50
[2] = read-out: DE-19 bDNA EC50; HepDE19 cells, Tet-free medium, 7 day-incubation, rcDNA measured by Quantigene 2.0 bDNA assay, top concentration 25 μM
[3] = Hepatitis B virus, HepDE19, 168 h, HepDE19 cells, Tet-free medium, 7 day-incubation, rcDNA measured by Quantigene 2.0 bDNA assay, top concentration 25 μM; read-out: DE-19 bDNA EC50

SMILES | EC50 [1] [nM] | EC50 [3] [nM] | other results
Cn1c(Cl)c2c(c1C(=O)Nc1ccc(F)c(Cl)c1)CCCC2NC(=O)OCc1nc[nH]n1 (single isomer, unassigned) [Compound 134, (1H-1,2,4-Triazol-3-yl)methyl (3-chloro-1-((3-chloro-4-fluorophenyl)carbamoyl)-2-methyl-4,5,6,7-tetrahydro-2H-isoindol-4-yl)carbamate] | 1900 | – | –
Cn1c(Cl)c2c(c1C(=O)Nc1ccc(F)c(Cl)c1)CCCC2NC(=O)OCc1nc[nH]n1 (single isomer, unassigned) [Compound 135, (1H-1,2,4-Triazol-3-yl)methyl (3-chloro-1-((3-chloro-4-fluorophenyl)carbamoyl)-2-methyl-4,5,6,7-tetrahydro-2H-isoindol-4-yl)carbamate] | 180 | – | –
Cn1c(Cl)c2c(c1C(=O)Nc1ccc(F)c(Cl)c1)CCCC2NC(=O)OCc1cn[nH]n1 (single isomer, unassigned) [Compound 136, (2H-1,2,3-Triazol-4-yl)methyl (3-chloro-1-((3-chloro-4-fluorophenyl)carbamoyl)-2-methyl-4,5,6,7-tetrahydro-2H-isoindol-4-yl)carbamate] | 1200 | – | –
Cn1c(Cl)c2c(c1C(=O)Nc1ccc(F)c(Cl)c1)CCCC2NC(=O)OCc1cn[nH]n1 (single isomer, unassigned) [Compound 137, (2H-1,2,3-Triazol-4-yl)methyl (3-chloro-1-((3-chloro-4-fluorophenyl)carbamoyl)-2-methyl-4,5,6,7-tetrahydro-2H-isoindol-4-yl)carbamate] | 160 | – | –
Cc1n[nH]nc1COC(=O)NC1CCc2c1cn(C)c2C(=O)Nc1ccc(F)c(Cl)c1 (single isomer, unassigned) [Compound 138, (5-Methyl-2H-1,2,3-triazol-4-yl)methyl (1-((3-chloro-4-fluorophenyl)carbamoyl)-2-methyl-2,4,5,6-tetrahydrocyclopenta[c]pyrrol-4-yl)carbamate] | 860 | – | –
Cc1n[nH]nc1COC(=O)NC1CCc2c1cn(C)c2C(=O)Nc1ccc(F)c(Cl)c1 (single isomer, unassigned) [Compound 139, (5-Methyl-2H-1,2,3-triazol-4-yl)methyl (1-((3-chloro-4-fluorophenyl)carbamoyl)-2-methyl-2,4,5,6-tetrahydrocyclopenta[c]pyrrol-4-yl)carbamate] | 3600 | – | –
CCc1n[nH]nc1COC(=O)NC1CCc2c1cn(C)c2C(=O)Nc1ccc(F)c(Cl)c1 (single isomer, unassigned) [Compound 140, (5-Ethyl-2H-1,2,3-triazol-4-yl)methyl(1-((3-chloro-4-fluorophenyl)carbamoyl)-2-methyl-2,4,5,6-tetrahydrocyclopenta[c]pyrrol-4-yl)carbamate] | – | – | EC50 [2]: 12000 nM
CCc1n[nH]nc1COC(=O)NC1CCc2c1cn(C)c2C(=O)Nc1ccc(F)c(Cl)c1 (single isomer, unassigned) [Compound 141, (5-Ethyl-2H-1,2,3-triazol-4-yl)methyl(1-((3-chloro-4-fluorophenyl)carbamoyl)-2-methyl-2,4,5,6-tetrahydrocyclopenta[c]pyrrol-4-yl)carbamate] | – | – | EC50 [2]: 1200 nM
Cn1cc2c(c1C(=O)Nc1ccc(F)c(Cl)c1)CCC2NC(=O)OCc1nnnn1C (single isomer, unassigned) [Compound 144, (1-Methyl-1H-tetrazol-5-yl)methyl(1-((3-chloro-4-fluorophenyl)carbamoyl)-2-methyl-2,4,5,6-tetrahydrocyclopenta[c]pyrrol-4-yl)carbamate] | – | – | EC50 [2]: 60 nM
Cn1cc2c(c1C(=O)Nc1ccc(F)c(Cl)c1)CCC2NC(=O)OCc1nnnn1C (single isomer, unassigned) [Compound 145, (1-Methyl-1H-tetrazol-5-yl)methyl (1-((3-chloro-4-fluorophenyl)carbamoyl)-2-methyl-2,4,5,6-tetrahydrocyclopenta[c]pyrrol-4-yl)carbamate] | – | 2700 | –
Cn1cc2c(c1C(=O)Nc1ccc(F)c(Cl)c1)CCC2NC(=O)OCc1n[nH]nc1C1CC1 (single isomer, unassigned) [Compound 146, (5-Cyclopropyl-2H-1,2,3-triazol-4-yl)methyl (1-((3-chloro-4-fluorophenyl)carbamoyl)-2-methyl-2,4,5,6-tetrahydrocyclopenta[c]pyrrol-4-yl)carbamate] | 9300 | – | –
Cn1cc2c(c1C(=O)Nc1ccc(F)c(Cl)c1)CCC2NC(=O)OCc1n[nH]nc1C1CC1 (single isomer, unassigned) [Compound 147, (5-Cyclopropyl-2H-1,2,3-triazol-4-yl)methyl (1-((3-chloro-4-fluorophenyl)carbamoyl)-2-methyl-2,4,5,6-tetrahydrocyclopenta[c]pyrrol-4-yl)carbamate] | 3600 | – | –
Cn1cc2c(c1C(=O)Nc1ccc(F)c(Cl)c1)CCC2NC(=O)OCc1nn[nH]n1 (single isomer, unassigned) [Compound 149, (2H-Tetrazol-5-yl)methyl(1-((3-chloro-4-fluorophenyl)carbamoyl)-2-methyl-2,4,5,6-tetrahydrocyclopenta[c]pyrrol-4-yl)carbamate] | – | – | EC50 [2]: 1100 nM
Cn1cc2c(c1C(=O)Nc1ccc(F)c(Cl)c1)CCC2NC(=O)OCc1nn[nH]n1 (single isomer, unassigned) [Compound 150, (2H-Tetrazol-5-yl)methyl(1-((3-chloro-4-fluorophenyl)carbamoyl)-2-methyl-2,4,5,6-tetrahydrocyclopenta[c]pyrrol-4-yl)carbamate] | – | – | EC50 [2]: 6800 nM
Cn1cc2c(c1C(=O)Nc1ccc(F)c(Cl)c1)CCC2NC(=O)OCc1ccccn1 (stereo not drawn) [Compound 2, pyridin-2-ylmethyl (1-((3-chloro-4-fluorophenyl)carbamoy1)-2-methyl-2,4,5,6-tetrahydrocyclopenta[c]pyrrol-4-yl)carbamate] | 260 | – | –
Cn1cc2c(c1C(=O)Nc1ccc(F)c(Cl)c1)CCC2NC(=O)OCc1ccccn1 (stereo not drawn) [Compound 6] | 140 | – | –
Cn1cc2c(c1C(=O)Nc1ccc(F)c(Cl)c1)CCC2NC(=O)OCc1ccccn1 (stereo not drawn) [Compound 7, pyridin-2-ylmethyl(1-((3-chloro-4-fluorophenyl)carbamoy1)-2-methyl-2,4,5,6-tetrahydrocyclopenta[c]pyrrol-4-yl)carbamate] | 1400 | – | –
COC(=O)NC1CCc2c1c[nH]c2C(=O)Nc1ccc(F)c(Cl)c1 (stereo not drawn) [Compound 9, methyl 1-(3-chloro-4-fluorophenylcarbamoyl)-2,4,5,6-tetrahydrocyclopenta[c]pyrrol-4-ylcarbamate] | – | 3000 | –
CCn1cc2c(c1C(=O)Nc1ccc(F)c(Cl)c1)CCC2NS(=O)(=O)C1CC1 (stereo not drawn) [Compound 12, N-(3-Chloro-4-fluorophenyl)-4-(cyclopropanesulfonamido)-2-ethyl-2,4,5,6-tetrahydrocyclopenta[c]pyrrole-1-carboxamide] | – | 260 | –
CCn1cc2c(c1C(=O)Nc1ccc(F)c(Cl)c1)CCC2NC(=O)C1CC1 (stereo not drawn) [Compound 18, N-(3-Chloro-4-fluorophenyl)-4-(cyclopropanecarboxamido)-2-ethyl-2,4,5,6-tetrahydro cyclopenta[c]pyrrole-1-carboxamide] | – | 350 | –
Cn1cc2c(c1C(=O)Nc1ccc(F)c(Cl)c1)CCC2=O [Compound 44, N-(3-chloro-4-fluorophenyl)-2-methyl-4-oxo-2,4,5,6-tetrahydrocyclopenta[c]pyrrole-1-carboxamide] | – | 19000 | –
Cn1cc2c(c1C(=O)Nc1ccc(F)c(Cl)c1)CCCC2=O [Compound 45, N-(3-chloro-4-fluorophenyl)-2-methyl-4-oxo-4,5,6,7-tetrahydro-2H-isoindole-1-carboxamide] | – | 70 | –
Cn1cc2c(c1C(=O)Nc1ccc(F)c(Cl)c1)CCC2NC(=O)OCc1ccn(C2CCCCO2)n1 (stereo not drawn) [Compound 63, (1-(Tetrahydro-2H-pyran-2-yl)-1H-pyrazol-3-yl)methyl (1-((3-chloro-4-fluorophenyl)carbamoyl)-2-methyl-2,4,5,6-tetrahydrocyclopenta[c]pyrrol-4-yl)carbamate] | – | 140 | –
Cn1cc2c(c1C(=O)Nc1ccc(F)c(Cl)c1)CCCCC2=O [Compound 72, N-(3-chloro-4-fluorophenyl)-2-methyl-4-oxo-2,4,5,6,7,8-hexahydrocyclohepta[c]pyrrole-1-carboxamide] | – | 50 | –
Cn1cc2c(c1C(=O)Nc1ccc(F)c(Cl)c1)CCCCC2N (stereo not drawn) [Compound 80, 4-Amino-N-(3-chloro-4-fluorophenyl)-2-methyl-2,4,5,6,7,8-hexahydro cyclohepta[c]pyrrole-1-carboxamide] | – | 1850 | –
Cn1cc2c(c1C(=O)Nc1ccc(F)c(Cl)c1)CCCCC2N (stereo not drawn) [Compound 87, 4-Amino-N-(3-chloro-4-fluorophenyl)-2-methyl-2,4,5,6,7,8-hexahydro cyclohepta[c]pyrrole-1-carboxamide] | 1600 | – | –
Cn1c(C(=O)Nc2ccc(F)c(Cl)c2)c2c(c1C1CC1)C(NC(=O)OCc1nc[nH]n1)CC2 (stereo not drawn) [Compound 95, (1H-1,2,4-triazol-3-yl)methyl (1-((3-chloro-4-fluorophenyl)carbamoy1)-3-cyclopropy1-2-methyl-2,4,5,6-tetrahydrocyclopenta[c]pyrrol-4-yl)carbamate] | – | 15000 | –
Cn1cc2c(c1C(=O)Nc1ccc(F)c(Cl)c1)CCC2N (stereo not drawn) [Compound 100, 4-Amino-N-(3-chloro-4-fluorophenyl)-2-methyl-2,4,5,6-tetrahydrocyclopenta[c]pyrrole-1-carboxamide] | – | 3800 | –
Cn1c(Cl)c2c(c1C(=O)Nc1ccc(F)c(Cl)c1)CCC2NC(=O)OCc1nc[nH]n1 (stereo not drawn) [Compound 103, (1H-1,2,4-Triazol-3-yl)methyl (3-chloro-1-((3-chloro-4-fluorophenyl)carbamoyl)-2-methyl-2,4,5,6-tetrahydrocyclopenta[c]pyrrol-4-yl)carbamate] | – | 20 | –
Cn1cnc(COC(=O)NC2CCc3c2c(C(F)(F)F)n(C)c3C(=O)Nc2ccc(F)c(Cl)c2)n1 (stereo not drawn) [Compound 122] | 450 | – | –
